Patent publication US20260174875A1 (Novo Nordisk A/S, priority 2023, published 2026)
Like-named read-outs stand apart in the source and are kept apart here. Square brackets hold non-standard residues; d marks the D form. Aib = CC(C)(N)C(=O)O

T1: human GIP receptor (hGIPR) (Homo sapiens, UniProt P48546)
T1 construct: expressed in transfected cells
T1 sequence (P48546 22-466): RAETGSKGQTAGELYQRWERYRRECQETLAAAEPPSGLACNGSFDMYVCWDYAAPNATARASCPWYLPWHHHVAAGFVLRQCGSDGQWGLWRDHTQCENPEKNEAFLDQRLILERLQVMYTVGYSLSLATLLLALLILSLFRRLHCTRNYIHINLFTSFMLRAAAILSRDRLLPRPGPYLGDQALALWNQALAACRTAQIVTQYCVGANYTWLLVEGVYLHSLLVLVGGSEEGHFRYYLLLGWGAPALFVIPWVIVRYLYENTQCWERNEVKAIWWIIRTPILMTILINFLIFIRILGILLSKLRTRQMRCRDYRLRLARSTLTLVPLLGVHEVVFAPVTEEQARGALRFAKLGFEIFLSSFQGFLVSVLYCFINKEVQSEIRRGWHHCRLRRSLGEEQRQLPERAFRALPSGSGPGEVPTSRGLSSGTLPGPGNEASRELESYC

T2: human amylin-3(a) receptor (human, UniProt P30988 25-474; O60896 24-148)
T2 sequence (looked up) 1: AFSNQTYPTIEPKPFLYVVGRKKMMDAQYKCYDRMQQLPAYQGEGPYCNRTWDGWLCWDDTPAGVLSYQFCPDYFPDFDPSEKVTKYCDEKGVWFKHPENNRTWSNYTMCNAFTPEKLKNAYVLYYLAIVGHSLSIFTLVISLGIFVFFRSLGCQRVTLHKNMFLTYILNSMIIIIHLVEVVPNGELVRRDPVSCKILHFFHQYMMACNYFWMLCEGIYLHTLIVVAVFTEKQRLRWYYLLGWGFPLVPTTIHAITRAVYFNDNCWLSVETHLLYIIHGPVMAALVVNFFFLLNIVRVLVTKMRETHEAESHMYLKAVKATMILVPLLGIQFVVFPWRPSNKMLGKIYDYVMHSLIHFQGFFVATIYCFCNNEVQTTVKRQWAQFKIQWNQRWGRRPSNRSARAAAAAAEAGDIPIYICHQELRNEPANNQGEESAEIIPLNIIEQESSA
T2 sequence (looked up) 2: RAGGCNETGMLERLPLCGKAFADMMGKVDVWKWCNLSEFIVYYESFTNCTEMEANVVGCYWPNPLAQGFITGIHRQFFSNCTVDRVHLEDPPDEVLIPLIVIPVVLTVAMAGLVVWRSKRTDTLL

T3: human GIP receptor (human, UniProt P48546 22-466)
T3 sequence (looked up): T1 sequence (P48546 22-466)

B1: Compound 217 (peptide)
peptide: Y[Aib]EGTFTSDYSILLEEIAAREFIEWLLAGGPSSGAGQAPGEAPGASHLSTAQTQRLSAELHKLATLPRTETGSGSP-NH2
modifications: also: further groups not given here
B2: Compound 219 (peptide)
peptide: Y[Aib]EGTFTSDYSILLEEIAAREFIEWLLAGGPSSGAGQAPGQAEGASHLSTAQTQRLSAELHKLATLPRTETGSGSP-NH2
modifications: also: further groups not given here
B3: Compound 210 (peptide)
peptide: Y[Aib]EGTFTSDYSILLEEQAAREFIEWLLAGGPSSGAGQAPGQAPGASHLSTAQTQRLSAELHKLATLPRTETGSGSP-NH2
modifications: also: further groups not given here

What was measured:
[1] = Pharmacokinetic study in minipigs (i.v.); assay type: in vivo, Göttingen minipigs; conditions: i.v. administration to minipigs, 2 nmol/kg
Procedure: This is done in a pharmacokinetic (PK) study, where the terminal half-life (t1/2) of the compound or derivative in question is determined. By terminal half-life is meant the time it takes to halve a certain plasma concentration in the terminal elimination phase.
Female Göttingen minipigs, obtained from Ellegaard Göttingen Minipigs (Dalmose, Denmark), approximately 8-12 months of age and weighing approximately 20-30 kg were used in the studies.
After three weeks of acclimatisation two permanent central venous catheters were implanted in vena cava caudalis in each animal. The animals were allowed at least 10 days recovery after the surgery and were then used for repeated pharmacokinetic studies with a suitable wash-out period between successive dosing.
The compounds of the invention were formulated (40 nmol/ml) in the following vehicle: 8 mM phosphate; 250 mM glycerol; 0.007% polysorbate 20, pH 7.4.
Blood samples (for example 1.3 ml) were collected in EDTA (1.3 ml tube containing K3EDTA to yield 1.6 mg K3EDTA/ml blood) coated tubes and then centrifuged at 4° C. and 2000×g for 10 minutes.
Plasma was within 30 min after centrifugation pipetted into Micronic tubes stored on dry ice and were afterwards kept at −20° C. until analysed for plasma concentration of the compounds using LCMS.
Plasma concentrations of the peptides of the invention were assayed by plasma protein precipitation and analysed by liquid chromatography mass spectrometry (LC-MS). Calibrators were prepared by spiking blank plasma from minipigs with the compounds in the typical range from 0.05 to 200 nM. […] The supernatant was diluted with 1 volumes of Milli-Q water containing 1% Formic acid before injection on the LC-MS system. Individual plasma concentration-time profiles were analysed by a non-compartmental pharmacokinetic method (NCA) in Phoenix v. 6.4 (Pharsight Inc., Mountain View, CA, USA), and the resulting terminal half-lives (harmonic mean) determined. The LC-MS analysis was carried out using a TurboFlow HPLC system from Thermo Fisher Scientific (Bremen, Germany) coupled to either a Q Exactive Orbitrap or Altis Triple Quadrupole (TQ) Mass Spectrometer. […] The Orbitrap mass spectrometer were operating in positive ionization mode with a spray voltage of 4.0 kV using Parallel Reaction Monitoring scan mode using 5 m/z isolation windows on the most abundant charge state of the compounds with a resolution of 35K on the Orbitrap MS.
The data was processed using the Quan Browser in the Xcalibur software from Thermo Fisher Scientific (Bremen, Germany) by fitted the data to linear calibration curves (weighed 1/x^2), used for calculating the concentration in the plasma samples. Quality control samples were included.

[2] = Chemical stability assessment in formulation (UPLC-UV-MS purity loss at 37° C.); assay type: physicochemical; conditions: 8 mM phosphate buffer pH 7.4, 1 mg/mL, 2 weeks
Procedure, shortened: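 Peptides at target 1 mg/mL in 8 mM phosphate buffer, pH adjusted to 7.4, incubated in capped vials at 37° C. and sampled over 2 weeks, frozen until analysis. Purity followed by UPLC-UV-MS with a 0.1% formic acid water/acetonitrile gradient.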

[3] = target: T4, human amylin receptor (hAMYR3) (Homo sapiens, UniProt O60896+P30988); experiment: Amylin receptor assay, method B (CRE-luciferase reporter, BHK cells); assay type: cell-based
T4 construct: host or cells: BHK cells (Hollex-1 line expressing hCTR(a) and CRE-Luc), further transfected with human RAMP3
Procedure, shortened: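 BHK cells with CRE-luciferase, co-expressing hAMYR3 and transfected with human RAMP3, seeded overnight, then exposed 3 h at 37 °C to compound. Buffer: phenol red-free DMEM, 10 mM HEPES, 1% ovalbumin, with 0% or 1% (w/v) HSA. Luminescence read after 30 min with steadylite Plus.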

[4] = target: T1, human GIP receptor (hGIPR); experiment: GIP receptor assay, method B (CRE-luciferase reporter, BHK cells, 384-well); assay type: cell-based
[5] = target: T5, human GLP-1 receptor (hGLP-1R) (Homo sapiens, UniProt P43220); experiment: GLP-1 receptor assay, method B (CRE-luciferase reporter, BHK cells, 384-well); assay type: cell-based; conditions: hGLP-1R Potency, 1% HSA, EC50, methods B, in the presence of 1% HSA
T5 construct: expressed in transfected cells
T5 sequence (P43220 24-463): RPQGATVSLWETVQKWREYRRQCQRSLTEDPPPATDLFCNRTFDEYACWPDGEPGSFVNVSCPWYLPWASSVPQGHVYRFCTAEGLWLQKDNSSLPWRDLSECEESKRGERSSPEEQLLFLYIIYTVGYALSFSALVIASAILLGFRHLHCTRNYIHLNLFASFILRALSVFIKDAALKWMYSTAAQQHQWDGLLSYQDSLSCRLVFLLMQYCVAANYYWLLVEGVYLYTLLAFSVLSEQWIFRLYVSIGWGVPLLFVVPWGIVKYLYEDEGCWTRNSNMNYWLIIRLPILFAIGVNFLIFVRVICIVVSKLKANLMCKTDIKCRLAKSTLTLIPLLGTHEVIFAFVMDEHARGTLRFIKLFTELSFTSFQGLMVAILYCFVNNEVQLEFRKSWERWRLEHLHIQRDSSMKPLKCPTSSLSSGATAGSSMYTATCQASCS
Procedure: To assess how the activation of the receptors is potentially influenced by the presence of human serum albumin (HSA), the in vitro assays were performed in the absence of HSA and presence of 1% (w/v) HSA.
Cells at approximately 80-90% confluence were washed once in PBS (Gibco 14190-094) and loosened from the cell flasks with Versene (Gibco, 15040-033). […] Cells were aliquoted and stored at −180° C. until use.
The assay buffer consisted of DMEM without phenol red (Gibco, 11880-028) supplemented with 1× GlutaMAX (Gibco, 35050-038), 10 mM HEPES (Gibco, 15630-056), 1% (w/v) ovalbumin (Sigma, A5503) and 0.1% (v/v) Pluronic F-68 (Gibco, 24040-032) either with HSA or without HSA (Sigma, A9511).
Serial dilutions were transferred to a 384-well assay plate (PerkinElmer/Revvity, 6007688) and mixed with an equal volume (10 μL) of assay buffer without or with 3% (w/v) HSA (Sigma, A-9511). Frozen stocks of hGLP-1R BHK Cre-Luc cells were thawed in a 37° C. water bath, washed once in PBS (Gibco 14190-094), diluted to 1.5×10^5 (1.5E+5) cells/mL in assay buffer (without HSA) and added (10 μL) to each well of the 384-well assay plate. After a short centrifugation, the assay plates were incubated for 3 hours at 37° C. in 5% CO2 and let to equilibrated at room temperature for 10 minutes before the addition of 30 μL steadylite Plus™ PerkinElmer/Revvity, 6066759) per well. Plates were sealed and incubated at room temperature with gentle shaking for 30 minutes while protected from light. Luminescence was detected on a luminescence plate reader e.g. a Synergy 2 (BioTek).

human GLP-1 receptor = human GLP-1 receptor (human, UniProt P43220 24-463); experiment: cell-based or functional assay
[6] = target: T2, human amylin-3(a) receptor; experiment: cell-based or functional assay
human GIP receptor = target: T3, human GIP receptor; experiment: cell-based or functional assay

| Purity loss per week at 37° C. [2] | hGLP-1R Potency, no HSA, EC50 [pM] (human GLP-1 receptor) | hAMYR3 Potency, no HSA, EC50 [pM] [6] | hGIPR Potency, no HSA, EC50 [pM] (human GIP receptor) | also measured | Molecule |
| --- | --- | --- | --- | --- | --- |
| 0.5% | – | – | – | Terminal half-life t1/2 [1]: 100 h | CC[C@H](C)[C@H](NC(=O)[C@H](CCC(=O)O)NC(=O)[C@H](CCC(=O)O)NC(=O)[C@H](CC(C)C)NC(=O)[C@H](CC(C)C)NC(=O)[C@@H](NC(=O)[C@H](CO)NC(=O)[C@H](Cc1ccc(O)cc1)NC(=O)[C@H](CC(=O)O)NC(=O)[C@H](CO)NC(=O)[C@@H](NC(=O)[C@H](Cc1ccccc1)NC(=O)[C@@H](NC(=O)CNC(=O)[C@H](CCC(=O)O)NC(=O)C(C)(C)NC(=O)[C@@H](N)Cc1ccc(O)cc1)[C@@H](C)O)[C@@H](C)O)[C@@H](C)CC)C(=O)N[C@@H](C)C(=O)N[C@@H](C)C(=O)N[C@@H](CCCNC(=N)N)C(=O)N[C@@H](CCC(=O)O)C(=O)N[C@@H](Cc1ccccc1)C(=O)N[C@H](C(=O)N[C@@H](CCC(=O)O)C(=O)N[C@@H](Cc1c[nH]c2ccccc12)C(=O)N[C@@H](CC(C)C)C(=O)N[C@@H](CC(C)C)C(=O)N[C@@H](C)C(=O)NCC(=O)NCC(=O)N1CCC[C@H]1C(=O)N[C@@H](CO)C(=O)N[C@@H](CO)C(=O)NCC(=O)N[C@@H](C)C(=O)NCC(=O)N[C@@H](CCC(N)=O)C(=O)N[C@@H](C)C(=O)N1CCC[C@H]1C(=O)NCC(=O)N[C@@H](CCC(N)=O)C(=O)N[C@@H](C)C(=O)N1CCC[C@H]1C(=O)N[C@@H](CC(C)C)C(=O)N[C@@H](C)C(=O)N[C@@H](CO)C(=O)N[C@@H](Cc1c[nH]cn1)C(=O)N[C@@H](CC(C)C)C(=O)N[C@@H](CO)C(=O)N[C@H](C(=O)N[C@@H](C)C(=O)N[C@@H](CCC(N)=O)C(=O)N[C@H](C(=O)N[C@@H](CCC(N)=O)C(=O)N[C@@H](CCCNC(=N)N)C(=O)N[C@@H](CC(C)C)C(=O)N[C@@H](CO)C(=O)N[C@@H](C)C(=O)N[C@@H](CCC(=O)O)C(=O)N[C@@H](CC(C)C)C(=O)N[C@@H](Cc1c[nH]cn1)C(=O)N[C@@H](CCCCNC(=O)COCCOCCNC(=O)COCCOCCNC(=O)CC[C@H](NC(=O)CCCCCCCCCCCCCCCCCCC(=O)O)C(=O)O)C(=O)N[C@@H](CC(C)C)C(=O)N[C@@H](C)C(=O)N[C@H](C(=O)N[C@@H](CC(C)C)C(=O)N1CCC[C@H]1C(=O)N[C@@H](CCCNC(=N)N)C(=O)N[C@H](C(=O)N[C@@H](CCC(=O)O)C(=O)N[C@H](C(=O)NCC(=O)N[C@@H](CO)C(=O)NCC(=O)N[C@@H](CO)C(=O)N1CCC[C@H]1C(N)=O)[C@@H](C)O)[C@@H](C)O)[C@@H](C)O)[C@@H](C)O)[C@@H](C)O)[C@@H](C)CC [Compound 125] |
| 1.3% | – | – | – | EC50 ([3]; hAMYR3 Potency, 1% HSA, EC50, methods B, in the presence of 1% HSA): 0.108 nM; EC50 ([3]; method B, absence of HSA, read-out: hAMYR3 Potency, no HSA, EC50): 0.0062 nM; EC50 ([4]; hGIPR Potency, 1% HSA, EC50, methods B, in the presence of 1% HSA): 0.0714 nM; EC50 ([4]; method B, absence of HSA, read-out: hGIPR Potency, no HSA, EC50): 0.002 nM; EC50 [5]: 0.744 nM | CC[C@H](C)[C@H](NC(=O)[C@H](CCC(=O)O)NC(=O)[C@H](CCC(=O)O)NC(=O)[C@H](CC(C)C)NC(=O)[C@H](CC(C)C)NC(=O)[C@H](CCCCNC(=O)COCCOCCNC(=O)COCCOCCNC(=O)CC[C@H](NC(=O)CCCCCCCCCCCCCCCCCCC(=O)O)C(=O)O)NC(=O)[C@H](CO)NC(=O)[C@H](Cc1ccc(O)cc1)NC(=O)[C@H](CC(=O)O)NC(=O)[C@H](CO)NC(=O)[C@@H](NC(=O)[C@H](Cc1ccccc1)NC(=O)[C@@H](NC(=O)CNC(=O)[C@H](CCC(=O)O)NC(=O)C(C)(C)NC(=O)[C@@H](N)Cc1ccc(O)cc1)[C@@H](C)O)[C@@H](C)O)C(=O)N[C@@H](C)C(=O)N[C@@H](C)C(=O)N[C@@H](CCCNC(=N)N)C(=O)N[C@@H](CCC(=O)O)C(=O)N[C@@H](Cc1ccccc1)C(=O)N[C@H](C(=O)N[C@@H](CCC(=O)O)C(=O)N[C@@H](Cc1c[nH]c2ccccc12)C(=O)N[C@@H](CC(C)C)C(=O)N[C@@H](CC(C)C)C(=O)N[C@@H](C)C(=O)NCC(=O)NCC(=O)N1CCC[C@H]1C(=O)N[C@@H](CO)C(=O)N[C@@H](CO)C(=O)NCC(=O)N[C@@H](C)C(=O)NCC(=O)N[C@@H](C)C(=O)N[C@@H](CO)C(=O)N[C@@H](CCC(=O)O)C(=O)N[C@@H](CC(C)C)C(=O)N[C@@H](CO)C(=O)N[C@H](C(=O)N[C@@H](C)C(=O)N[C@@H](CCC(N)=O)C(=O)N[C@@H](CC(C)C)C(=O)NCC(=O)N[C@@H](CCCNC(=N)N)C(=O)N[C@@H](CC(C)C)C(=O)N[C@@H](CO)C(=O)N[C@@H](C)C(=O)N[C@@H](CCC(=O)O)C(=O)N[C@@H](CC(C)C)C(=O)N[C@@H](Cc1c[nH]cn1)C(=O)N[C@@H](CCC(N)=O)C(=O)N[C@@H](CC(C)C)C(=O)N[C@@H](C)C(=O)N[C@H](C(=O)N[C@@H](CC(C)C)C(=O)N1CCC[C@H]1C(=O)N[C@@H](CCCNC(=N)N)C(=O)N[C@H](C(=O)N[C@@H](CCC(=O)O)C(=O)N[C@H](C(=O)NCC(=O)N[C@@H](CO)C(=O)NCC(=O)N[C@@H](CO)C(=O)N1CCC[C@H]1C(N)=O)[C@@H](C)O)[C@@H](C)O)[C@@H](C)O)[C@@H](C)O)[C@@H](C)CC [Compound 183] |
| – | 9 pM | – | – | – | B1 |
| – | – | 5 pM | 0.5 pM | – | B2 |
| – | 16.4 pM | 7.28 pM | 9.57 pM | – | B3 |
